The source made the active and inactive calls. No cut-off for these calls is given here.
Tests used:
[1] = test system: HT-29; experiment: Induction of apoptosis in human HT-29 cells assessed as early apoptotic cells at 5 uM incubated for 24 hrs by Annexin V-FITC/PI staining based flow cytometric analysis (reference value: 5.29 %); type: functional
[2] = test system: HCT-116; experiment: Induction of apoptosis in human HCT-116 cells assessed as late apoptotic cells at 5 uM preincubated with Z-VAD-FMK for 1 hr followed by compound addition and measured after 24 hrs by Annexin V-FITC/PI staining based flow cytometric analysis (reference value: 9.37 %); type: functional
[3] = test system: Mus musculus; experiment: Anti-inflammatory activity in AOM/DSS-induced BALB/c mouse model inflammatory bowel disease assessed as reduction in tumor number at 5 to 10 mg/kg, ip pretreated with AOM for 7 days further replaced with DSS for 7 days and repeated for 2 times followed by every 2 days compound treatment for […] starting from day 50 and measured once a week; type: functional, organism-based; conditions: dose 5-10 mg/kg, time 21.0 day
[4] = test system: HCT-116; experiment: Induction of autophagy in human HCT-116 cells assessed as increase in LC3 protein expression at 1 to 10 uM incubated for 24 hrs by Western blot analysis; type: functional, cell-based; conditions: dose 1-10 µM
[5] = test system: HT-29; experiment: Cytotoxicity against human HT-29 cells assessed as inhibition of cell growth by SRB assay; type: functional, cell-based; conditions: time 24-48 hrs, TDE = time-dependent effect
[6] = test system: HCT-116; experiment: Induction of autophagic cell death in human HCT-116 cells at 1 to 10 uM pretreated with chloroquine for 1 hr followed by compound addition and measured after 24 hrs by SRB assay; type: functional, cell-based; conditions: dose 1-10 µM
[7] = test system: HT-29; experiment: Induction of autophagic flux in human HT-29 cells assessed as increase in LC3I to LC3II conversion preincubated with 3-methyladenine for 1 hr followed by compound addition and measured after 24 hrs by Western blot analysis; type: functional, cell-based
[8] = molecular target: T1, Nuclear factor NF-kappa-B complex (Homo sapiens) (UniProt Q00653+P19838+Q04206); experiment: Inhibition of TNF-alpha induced NFkappaB activation in human HCT-116 cells assessed as inhibition of p65 nuclear translocation at 10 uM pretreated for 6 hrs followed by TNFalpha stimulation for 15 mins by immunohistochemical analysis; type: cell-based; conditions: time 6.25 hrs
[9] = test system: HCT-116; experiment: Antitumor activity against human HCT-116 cells xenografted in athymic nude BALB/c mouse assessed as induction of autophagy by measuring increase in LC3B expression in tumor at 15 mg/kg, ip administered every other day and measured after 14 days by immunohistochemistry analysis; type: functional, organism-based; conditions: time 14.0 day
[10] = test system: HCT-116; experiment: Induction of cell cycle arrest in human HCT-116 cells assessed as accumulation of cells at S phase at 10 uM by RNase/PI staining based flow cytometry analysis (reference value: 43.77 %); type: functional
[11] = test system: HT-29; experiment: Antitumor activity against human HT-29 cells xenografted in athymic nude BALB/c mouse assessed as reduction in tumor volume at 5 to 15 mg/kg, ip administered every other day and measured every other day for 16 days; type: functional, organism-based; conditions: dose 5-15 mg/kg, time 16.0 day
[12] = test system: HCT-116; experiment: Antitumor activity against human HCT-116 cells xenografted in athymic nude BALB/c mouse assessed as reduction in tumor volume at 5 to 15 mg/kg, ip administered every other day and measured every other day for 16 days; type: functional, organism-based; conditions: dose 5-15 mg/kg, time 16.0 day
[13] = test system: HCT-116; experiment: Induction of apoptosis in human HCT-116 cells assessed as viable cells at 5 uM preincubated with Z-VAD-FMK for 1 hr followed by compound addition and measured after 24 hrs by Annexin V-FITC/PI staining based flow cytometric analysis (reference value: 85.5 %); type: functional; conditions: read-out: Activity
[14] = test system: HT-29; experiment: Induction of cell cycle arrest in human HT-29 cells assessed as decrease in Cyclin B protein expression upto 10 uM incubated for 24 hrs by Western blot analysis; type: functional, cell-based
[15] = molecular target: T1, Nuclear factor NF-kappa-B complex (Homo sapiens); experiment: Inhibition of TNF-alpha induced NFkappaB activation in human HT-29 cells assessed as inhibition of IkappaBalpha degradation at 1 to 10 uM pretreated for 24 hrs followed by TNFalpha stimulation for 10 mins by Western blot analysis; type: cell-based; conditions: dose 1-10 µM, time 1450.0 min
[16] = molecular target: T1, Nuclear factor NF-kappa-B complex (Homo sapiens); experiment: Inhibition of TNF-alpha induced NFkappaB activation in human HT-29 cells assessed as inhibition of p65 nuclear translocation at 10 uM pretreated for 6 hrs followed by TNFalpha stimulation for 15 mins by immunohistochemical analysis; type: cell-based; conditions: time 6.25 hrs
[17] = molecular target: T1, Nuclear factor NF-kappa-B complex (Homo sapiens); experiment: Inhibition of NFkappaB activation in HEK293T cells transfected with Flag-tagged TRAF2 and kappaB luciferase/pTK-renilla reporters at 2 uM incubated for 6 hrs by Dual Luciferase Reporter Assay; type: cell-based; conditions: HEK-293T
[18] = test system: HT-29; experiment: Induction of apoptosis in human HT-29 cells assessed as late apoptotic cells at 10 uM incubated for 24 hrs by Annexin V-FITC/PI staining based flow cytometric analysis (reference value: 1.56 %); type: functional
[19] = test system: HT-29; experiment: Induction of cell cycle arrest in human HT-29 cells assessed as decrease in Cdc25c protein expression upto 10 uM incubated for 24 hrs by Western blot analysis; type: functional, cell-based
[20] = test system: HCT-116; experiment: Induction of cell cycle arrest in human HCT-116 cells assessed as accumulation of cells at S phase at 1 uM by RNase/PI staining based flow cytometry analysis (reference value: 43.77 %); type: functional
[21] = test system: HT-29; experiment: Induction of apoptosis in human HT-29 cells assessed as necrotic cells at 1 uM incubated for 24 hrs by Annexin V-FITC/PI staining based flow cytometric analysis (reference value: 0.14 %); type: functional
[22] = test system: HCT-116; experiment: Induction of autophagy in human HCT-116 cells assessed as increase in autophagic vesicles at 1 to 10 uM incubated for 24 hrs MDC staining-based fluorescence microscopy; type: functional, cell-based; conditions: dose 1-10 µM
[23] = Toxicity in athymic nude BALB/c mouse xenografted with human HT-29 cells assessed as pathological changes in heart at 5 to 15 mg/kg, ip administered every other day and measured after 14 days by hematoxylin and eosin staining-based microscopic analysis; type: organism-based; conditions: in vivo, 336 h, dose 5-15 mg/kg, time 14 day
[24] = test system: HT-29; experiment: Induction of autophagic flux in human HT-29 cells assessed as increase in LC3I to LC3II conversion preincubated with chloroquine for 1 hr followed by compound addition and measured after 24 hrs by Western blot analysis; type: functional, cell-based
[25] = test system: HCT-116; experiment: Induction of cell cycle arrest in human HCT-116 cells assessed as accumulation of cells at G2/M phase at 1 uM by RNase/PI staining based flow cytometry analysis (reference value: 23.15 %); type: functional
[26] = Toxicity in athymic nude BALB/c mouse xenografted with human HCT-116 cells assessed as reduction in body weight at 5 to 15 mg/kg, ip administered every other day and measured every other day for 16 days; type: organism-based; conditions: in vivo, 384 h, dose 5-15 mg/kg, time 16 day
[27] = test system: Mus musculus; experiment: Protection against LPS-induced endotoxic shock in BALB/c mouse model assessed as survival rate at 5 mg/kg, ip pretreated for 4 hrs followed by LPS administration at 20 mg/kg and measured every 2 to 4 hrs for 44 hrs relative to control; type: functional; conditions: time 48 hrs
[28] = test system: HT-29; experiment: Induction of apoptosis in human HT-29 cells assessed as viable cells at 5 uM incubated for 24 hrs by Annexin V-FITC/PI staining based flow cytometric analysis (reference value: 88.3 %); type: functional; conditions: read-out: Activity
[29] = Toxicity in athymic nude BALB/c mouse xenografted with human HT-29 cells assessed as reduction in body weight at 5 to 15 mg/kg, ip administered every other day and measured every other day for 16 days; type: organism-based; conditions: in vivo, 384 h, dose 5-15 mg/kg, time 16 day

T1 sequence (P19838 whole entry, looked up): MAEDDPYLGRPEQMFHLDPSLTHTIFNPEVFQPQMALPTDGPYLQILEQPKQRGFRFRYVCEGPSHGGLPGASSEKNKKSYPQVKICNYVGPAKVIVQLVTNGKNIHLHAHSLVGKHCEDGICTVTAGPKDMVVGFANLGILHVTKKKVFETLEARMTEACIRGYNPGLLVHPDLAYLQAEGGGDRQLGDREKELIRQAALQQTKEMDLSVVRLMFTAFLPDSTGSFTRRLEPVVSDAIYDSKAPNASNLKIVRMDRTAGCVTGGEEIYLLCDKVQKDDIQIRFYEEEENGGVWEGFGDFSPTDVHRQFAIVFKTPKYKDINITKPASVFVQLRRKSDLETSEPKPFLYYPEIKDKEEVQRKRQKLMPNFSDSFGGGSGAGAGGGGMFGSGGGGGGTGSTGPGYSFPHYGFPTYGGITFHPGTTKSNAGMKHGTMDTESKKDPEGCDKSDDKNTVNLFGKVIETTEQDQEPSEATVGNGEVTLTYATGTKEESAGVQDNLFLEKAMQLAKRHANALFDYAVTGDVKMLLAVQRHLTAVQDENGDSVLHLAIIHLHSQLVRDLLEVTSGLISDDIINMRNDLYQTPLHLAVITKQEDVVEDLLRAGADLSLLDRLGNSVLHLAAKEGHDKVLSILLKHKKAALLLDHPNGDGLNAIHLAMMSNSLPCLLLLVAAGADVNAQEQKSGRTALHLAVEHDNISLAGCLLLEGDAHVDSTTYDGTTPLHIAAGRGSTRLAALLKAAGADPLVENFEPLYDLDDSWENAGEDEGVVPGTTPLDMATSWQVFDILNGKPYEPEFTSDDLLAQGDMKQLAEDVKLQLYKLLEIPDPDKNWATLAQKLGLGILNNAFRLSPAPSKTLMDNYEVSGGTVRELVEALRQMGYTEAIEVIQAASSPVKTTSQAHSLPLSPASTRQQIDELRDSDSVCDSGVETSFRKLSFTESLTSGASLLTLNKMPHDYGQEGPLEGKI
T1 sequence (Q00653 whole entry, looked up): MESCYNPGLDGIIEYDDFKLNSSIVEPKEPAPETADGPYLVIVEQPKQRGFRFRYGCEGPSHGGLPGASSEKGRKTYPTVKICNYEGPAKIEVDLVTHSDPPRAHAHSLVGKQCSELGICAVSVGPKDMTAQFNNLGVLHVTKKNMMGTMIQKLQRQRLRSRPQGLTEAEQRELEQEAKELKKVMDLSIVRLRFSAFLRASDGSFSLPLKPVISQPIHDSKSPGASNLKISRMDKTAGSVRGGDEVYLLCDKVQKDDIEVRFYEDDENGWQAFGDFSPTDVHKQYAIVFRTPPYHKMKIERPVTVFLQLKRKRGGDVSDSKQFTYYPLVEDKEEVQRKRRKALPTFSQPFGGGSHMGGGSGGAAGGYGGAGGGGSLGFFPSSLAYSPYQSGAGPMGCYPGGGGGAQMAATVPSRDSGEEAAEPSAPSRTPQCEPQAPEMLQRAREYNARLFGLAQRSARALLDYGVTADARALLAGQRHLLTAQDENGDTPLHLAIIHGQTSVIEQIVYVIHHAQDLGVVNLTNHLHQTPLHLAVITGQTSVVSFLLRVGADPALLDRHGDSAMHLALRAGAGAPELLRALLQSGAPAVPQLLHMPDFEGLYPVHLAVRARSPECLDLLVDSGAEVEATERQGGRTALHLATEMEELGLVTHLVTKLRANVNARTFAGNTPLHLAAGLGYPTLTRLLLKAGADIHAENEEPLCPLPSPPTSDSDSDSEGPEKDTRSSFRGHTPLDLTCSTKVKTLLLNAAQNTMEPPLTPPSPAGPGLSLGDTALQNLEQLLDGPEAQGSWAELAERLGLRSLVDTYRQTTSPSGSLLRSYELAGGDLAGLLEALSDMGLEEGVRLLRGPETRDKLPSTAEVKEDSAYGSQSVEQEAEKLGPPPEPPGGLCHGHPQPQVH
T1 sequence (Q04206 whole entry, looked up): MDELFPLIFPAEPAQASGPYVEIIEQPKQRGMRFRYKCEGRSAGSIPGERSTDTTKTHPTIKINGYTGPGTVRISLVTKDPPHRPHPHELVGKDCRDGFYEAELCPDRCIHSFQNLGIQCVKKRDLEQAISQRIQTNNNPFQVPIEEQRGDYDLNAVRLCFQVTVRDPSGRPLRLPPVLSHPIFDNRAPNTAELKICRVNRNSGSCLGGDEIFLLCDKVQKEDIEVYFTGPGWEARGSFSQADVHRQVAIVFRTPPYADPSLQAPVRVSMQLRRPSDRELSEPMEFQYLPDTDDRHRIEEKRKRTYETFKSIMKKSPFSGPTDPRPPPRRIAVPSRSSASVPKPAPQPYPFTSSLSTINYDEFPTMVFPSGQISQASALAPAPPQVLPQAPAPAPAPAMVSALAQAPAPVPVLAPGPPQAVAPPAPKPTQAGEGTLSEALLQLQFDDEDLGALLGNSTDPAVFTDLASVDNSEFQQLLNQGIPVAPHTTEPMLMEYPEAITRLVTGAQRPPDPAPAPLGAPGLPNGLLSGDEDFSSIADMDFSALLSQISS

C[C@@H]1CC[C@H]2[C@H](C(=O)c3c(O)c([C@@]4(O)CC[C@@H](O)[C@H]5O[C@H]54)cn(O)c3=O)[C@H](C)C=C[C@@H]2C1
Activity [1]: 56.4%
Activity [2]: 53.3%
Activity [3]: Active
Activity [4]: Active
Activity [5]: Tde
Activity [6]: inactive
Activity [7]: Active
inhibition [8]: Active
Activity [9]: Active
Activity [10]: 39.08%
Activity [11]: Active
Activity [12]: Active
viability at 5 µM [13]: 29.5%
Activity [14]: Active
inhibition [15]: Active
inhibition [16]: Active
inhibition [17]: Active
Activity [18]: 16.8%
Activity [19]: Active
Activity [20]: 43.65%
Activity [21]: 0.4%
Activity [22]: Active
Activity [23]: Non-Toxic
Activity [24]: Active
Activity [25]: 20.12%
Activity [26]: Non-Toxic
survival at 5 mg/kg [27]: > 40%
viability at 5 µM [28]: 49.5%
Activity [29]: Non-Toxic

Source: ChEMBL document CHEMBL5390201, “The Natural Alkaloid (-)-N-Hydroxyapiosporamide Suppresses Colorectal Tumor Progression as an NF-κB Pathway Inhibitor by Targeting the TAK1-TRAF6 Complex” (J Nat Prod, 2023)
